Source: patent US10426762B2, “Inhibitors of hepatitis C virus polymerase” (COCRYSTAL DISCOVERY, INC., priority 2012, dated 2019)

Target: T1, HCV1b NS5B polymerase delta 21 (Hepatitis C virus genotype 1b, UniProt P26663)
T1 construct: purified HCV1b NS5B polymerase delta 21
Assay: RNA-dependent RNA HCV NS5B (polymerase) assay and IC50 determination
Format: biochemical
Conditions: not given
Method: Example 212—RNA-Dependent RNA HCV NS5B (Polymerase) Assay and IC50 Determination
In vitro RNA-dependent RNA polymerase activity was determined in a reaction mixture (50 μL) containing 50 mM Tris-HCl, pH 7.5, 5 mM MgCl2, 1 mM dithiothreitol, 0.5% Triton® X-100, 10 μM of UTP, 0.1-0.5 μCi of α-^32P UTP (Perkin Elmer Life Sciences), 1 μg of polyA:U16 (Midland Oligo), and 0.6 μg of purified HCV1b NS5B polymerase delta 21. Different concentrations of compounds were added to the reaction mixtures. The reaction was carried out at RT (23° C.) for 60 min and then stopped by the addition of 100 μL of 50 mM EDTA. The reaction mixtures were filtered through either a DE81 membrane or a positively charged nylon membrane, and the membranes were then extensively washed with 30 mM sodium citrate, pH 7.0 and 300 mM NaCl. The radiolabeled RNA products were quantitated using a Storm™ PhosphorImager™ (GE life Sciences). IC50 values were calculated using GraFit 6 and GraphPad Prism 5 from triplicate assays.

T1 sequence (P26663 2420-2989): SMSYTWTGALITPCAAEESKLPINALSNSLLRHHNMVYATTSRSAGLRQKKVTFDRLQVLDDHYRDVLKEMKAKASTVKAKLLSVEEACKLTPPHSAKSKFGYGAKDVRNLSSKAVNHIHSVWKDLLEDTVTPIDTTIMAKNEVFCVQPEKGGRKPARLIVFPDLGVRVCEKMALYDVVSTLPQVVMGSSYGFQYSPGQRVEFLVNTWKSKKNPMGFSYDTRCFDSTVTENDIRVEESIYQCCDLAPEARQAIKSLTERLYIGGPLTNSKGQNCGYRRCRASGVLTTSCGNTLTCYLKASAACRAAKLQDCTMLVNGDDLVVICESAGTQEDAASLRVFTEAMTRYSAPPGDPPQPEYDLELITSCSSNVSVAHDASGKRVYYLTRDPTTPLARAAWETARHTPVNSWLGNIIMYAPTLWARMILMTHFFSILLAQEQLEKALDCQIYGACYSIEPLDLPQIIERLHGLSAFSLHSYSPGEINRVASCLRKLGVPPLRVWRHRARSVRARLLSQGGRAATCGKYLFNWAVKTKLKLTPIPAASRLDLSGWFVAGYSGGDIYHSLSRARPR

`CC1CCC(C2=C(c3cc(-c4ccc(NC(=O)c5cscn5)cc4)sc3C(=O)O)CN(CC(O)CO)CC2)CC1` (stereo not shown) [Example 190, 3-(1-(2,3-dihydroxypropyl)-4-(4-methylcyclohexyl)-1,2,5,6-tetrahydropyridin-3-yl)-5-(4-(thiazole-4-carboxamido)phenyl)thiophene-2-carboxylic acid] and `CN1CCC(C2CCCCC2)=C(c2cc(-c3ccc(NC(=O)c4cscn4)cc3)sc2C(=O)O)C1` [Example 210, 3-(4-Cyclohexyl-1-methyl-1,2,5,6-tetrahydro-pyridin-3-yl)-5-{4-[(thiazole-4-carbonyl)-amino]-phenyl}-thiophene-2-carboxylic acid] cannot be ordered by IC50: under 3 µM for the first, under 3 µM for the second.

`CC1CCC(C2=C(c3cc(-c4ccc(NC(=O)c5cscn5)c(F)c4)sc3C(=O)O)CN(C)CC2)CC1` (stereo not shown) [Example 198] and `Cc1cc(-c2cc(C3=C(C4CCC(C)CC4)CCN(Cc4cnn(C)c4)C3)c(C(=O)O)s2)ccc1NC(=O)c1cscn1` (stereo not shown) [Example 199, 3-(1-((1-methyl-1H-pyrazol-4-yl)methyl)-4-(4-methylcyclohexyl)-1,2,5,6-tetrahydropyridin-3-yl)-5-(3-methyl-4-(thiazole-4-carboxamido)phenyl)thiophene-2-carboxylic acid] cannot be ordered by IC50: under 3 µM for the first, under 3 µM for the second.

First: CN1CCC(C2CCC(F)(F)CC2)=C(c2cc(-c3ccc(NC(=O)c4cscn4)cc3)sc2C(=O)O)C1 [Example 200, 3-(4-(4,4-difluorocyclohexyl)-1-methyl-1,2,5,6-tetrahydropyridin-3-yl)-5-(4-(thiazole-4-carboxamido)phenyl)thiophene-2-carboxylic acid]
Second: CN1CCC(c2cc(-c3ccccc3)sc2C(=O)O)=C(C2CCCC2)C1 [Example 207, 3-(5-Cyclopentyl-1-methyl-1,2,3,6-tetrahydro-pyridin-4-yl)-5-phenyl-thiophene-2-carboxylic acid]
The IC50 of the first is lower: under 3 µM for the first, 3 to 10 µM for the second.

`CC1CCC(C2=C(c3cc(-c4ccc(N)nc4)sc3C(=O)O)CCN(C)C2)CC1` (stereo not shown) [Example 203, 5-(6-aminopyridin-3-yl)-3-(1-methyl-5-(4-methylcyclohexyl)-1,2,3,6-tetrahydropyridin-4-yl)thiophene-2-carboxylic acid] and `CN1CCC(c2cc(-c3ccccc3)sc2C(=O)O)=C(C2CCCCCC2)C1` [Example 206, 3-(5-Cycloheptyl-1-methyl-1,2,3,6-tetrahydro-pyridin-4-yl)-5-phenyl-thiophene-2-carboxylic acid] cannot be ordered by IC50: under 3 µM for the first, under 3 µM for the second.

First: CN1CCC(c2cc(-c3ccccc3)sc2C(=O)O)=C(c2ccc(Cl)cc2)C1 [Example 208, 3-[5-(4-Chloro-phenyl)-1-methyl-1,2,3,6-tetrahydro-pyridin-4-yl]-5-phenyl-thiophene-2-carboxylic acid]
Second: CCCCCC1=C(c2cc(-c3ccccc3)sc2C(=O)O)CCN(C)C1 [Example 209, 3-(1-Methyl-5-pentyl-1,2,3,6-tetrahydro-pyridin-4-yl)-5-phenyl-thiophene-2-carboxylic acid]
The IC50 of the first is higher: over 10 µM for the first, 3 to 10 µM for the second. The second is the more potent here.

`CN1CCC(c2cc(C#CC(C)(C)C)sc2C(=O)O)=C(C2CCCCC2)C1` [Example 211, 3-(5-Cyclohexyl-1-methyl-1,2,3,6-tetrahydro-pyridin-4-yl)-5-(3,3-dimethyl-but-1-ynyl)-thiophene-2-carboxylic acid] was tested, and the IC50 was under 3 µM.

Test system: HCV1b replicon
Assay: HCV replicon assay (Huh-7 cell line with HCV1b replicon containing luciferase reporter) and EC50 determination
Format: cell-based
Conditions: Hepatitis C virus; Table 1; Huh-7 HCV1b replicon luciferase reporter, 72 hr, triplicate
Method: Example 213—HCV Replicon Assay and EC50 Determination
The antiviral activity of compounds against hepatitis C virus was determined by a hepatitis C virus replicon reporter cell line developed by Bartenschlager (Lohmann et al., Science 1999, 285:110-113; Bartenschlager et al., Antiviral Res 2003, 60:91-102). This cell-based assay utilized a liver cell carcinoma (Huh-7) cell line stably transformed with an HCV1b replicon containing a luciferase reporter gene. Varied concentrations of compounds were added to the reporter cell line, and further incubated at 37° C. for 72 hr in DMEM supplemented with 10% FCS. The inhibitory effects of experimental compounds or the reference compound, interferon alpha (INFα), on HCV replication were measured by luciferase activity using the Britelite™ plus luminescence reporter gene kit (Perkin Elmer, Shelton, Conn.). The Britelite plus reagent was added to the 96-well plates containing the HCV reporter cells, and luminescence was measured within 15 min using a Wallac 1450 Microbeta® Trilux liquid scintillation counter. EC50 values were calculated using GraFit 6 and GraphPad Prism 5 from triplicate HCV replicon assays.

`CN1CCC(C2CCC(F)(F)CC2)=C(c2cc(-c3ccc(NC(=O)c4cscn4)cc3)sc2C(=O)O)C1` [Example 200, 3-(4-(4,4-difluorocyclohexyl)-1-methyl-1,2,5,6-tetrahydropyridin-3-yl)-5-(4-(thiazole-4-carboxamido)phenyl)thiophene-2-carboxylic acid] was tested, and the EC50 was 3 to 10 µM.

Same assay, conditions: Hepatitis C virus; Table 2; Huh-7 HCV1b replicon luciferase reporter, 72 hr, triplicate

`CC1CCC(C2=C(c3cc(-c4ccc(NC(=O)c5cscn5)cc4)sc3C(=O)O)CN(CC(O)CO)CC2)CC1` (stereo not shown) [Example 190, 3-(1-(2,3-dihydroxypropyl)-4-(4-methylcyclohexyl)-1,2,5,6-tetrahydropyridin-3-yl)-5-(4-(thiazole-4-carboxamido)phenyl)thiophene-2-carboxylic acid] was tested, and the EC50 was under 3 µM.
